According to a melting point compilation (Tetko et al.; mined from patent text by program, amines drawn as free bases though some values may be those of a salt):

First: COc1ccc2ccc(NC(=O)c3cccc(O)c3)nc2n1
Second: COc1nc2ccccc2nc1NC(=S)N1CCN(c2ccc(C(C)=O)cc2)CC1
The melting point of the first is higher: 295 °C for the first, 235 to 237 °C for the second.

First: CC(C)Nc1cc(-c2nc[nH]n2)nc(Cl)c1-c1c(F)cccc1Cl
Second: Nc1n[nH]c2nc(C3CC3)cc(-c3ccc(Cl)c(Cl)c3)c12
The melting point of the first is lower: 152 °C for the first, 256 to 258 °C for the second.

First: COc1cc2c(cc1OC)CN(CCCCOc1ccc(NC(=O)c3nccc4ccccc34)cc1)CC2
Second: CCCCOC(=O)COc1ccc(C(=O)Nc2cc(C)ccc2Sc2ccccc2-c2nnn[nH]2)cc1
The melting point of the first is lower: 122 to 123 °C for the first, 146 to 148 °C for the second.

First: OCc1ccc2ccn(C3CCN(CCc4ccccc4F)CC3)c2c1
Second: O=C(CCC1CCN(Cc2ccccc2)CC1)c1ccc(N2CCCC2)cc1
The melting point of the first is lower: 117 to 118 °C for the first, 144 to 145 °C for the second.

First: NCCC1CCC(C(O)(P(=O)(O)O)P(=O)(O)O)CC1 (stereo not given)
Second: O=C(O)c1cnc(N2CCN(CC3CC3)C2=O)s1
The melting point of the first is lower: 226 to 230 °C for the first, 250 to 252 °C for the second.

First: CCCNc1c(CN)cnc2cn[nH]c12
Second: CCN(CC)c1nc2cc(C)nn2c2c1cnc1c2cnn1CC
The melting point of the first is lower: 97 to 100 °C for the first, 106 to 108 °C for the second.

Compared with `CC(=Cc1ccc(C(F)(F)F)cc1)C1OCC(S(=O)Cc2ccc(Cl)cc2)CO1` (stereo not given), `N[C@H](Cc1ccc(C(F)(F)F)cc1)[C@@H](O)c1cccc(Cl)n1` (racemic) is lower in melting point: 192 to 194 °C for the first, 89 to 90 °C for the second.

Compared with `O=C1NC(=S)C(c2cccc(Cl)c2)C1c1ccccc1` (stereo not given), `O=C(c1ccccc1)c1c(O)cc(-c2ccccc2)oc1=O` is higher in melting point: 104 to 106 °C for the first, 171 to 173 °C for the second.

First: CC(C)CC(C=O)NC(=O)C(Cc1c[nH]cn1)NC(=O)C(CC=Cc1ccccc1)Cc1cccc2ccccc12 (stereo not given)
Second: NCc1c(Nc2ccccc2)cccc1-c1ccccc1
The melting point of the first is lower: 92 to 96 °C for the first, 115 to 116 °C for the second.

First: COc1cc2ncc(C#N)c(Nc3ccc(C)cc3)c2cc1OC
Second: COc1ccc(Cc2cc(=O)[nH]c3nc(OCc4ccccn4)ncc23)cc1Cl
The melting point of the first is lower: 128 to 130 °C for the first, 130 to 131 °C for the second.

Compared with `FC(F)(F)c1ccn(-c2ccnc(Cl)n2)n1`, `Cc1ccc(S(=O)(=O)n2ccnc2C(O)(c2ccc(F)cc2)c2ccc(F)cc2)cc1` is higher in melting point: 111 to 112 °C for the first, 149 to 151 °C for the second.

First: CNC(=O)CC(SC(C)=O)C(CC(C)C)C(=O)NC(Cc1ccc(OC)cc1)C(=O)NC (stereo not given)
Second: CNC(=O)c1cc(-c2ccc(OC)cc2)nn(CCO)c1=O
The melting point of the first is higher: 195 to 199 °C for the first, 160 to 161 °C for the second.

Going from `N#CCC(=O)NCCCNC(=O)CC#N` to `CC(=O)Nc1ccc(C(=O)CBr)cc1F`, the melting point rises from 146 °C to 184 °C.

First: O=C(Oc1ccccc1)c1ccc(Oc2ccc([N+](=O)[O-])cc2)cc1O
Second: OC(Cc1ccc(Cl)cc1)(Cn1ccnc1)c1ccc(-c2ccccc2)cc1 (stereo not given)
The melting point of the first is lower: 118 to 120 °C for the first, 182 °C for the second.

First: CCOc1ccc(Cl)c([N+](=O)[O-])c1
Second: CC(C)Cc1cnc(N)c([N+](=O)[O-])c1
The melting point of the first is lower: 48 to 49.5 °C for the first, 147 to 149 °C for the second.

First: N#Cc1ccc(CN2CCN(c3ccncc3)CC2)cc1
Second: Nc1cccc2c1OC1(CC1)C2=O
The melting point of the first is higher: 137 to 138 °C for the first, 136 °C for the second.

First: CCCCCS(=O)(=O)NC(=O)CCc1ccc(OCCC2(C)OCCO2)cc1Oc1ncc(C(F)(F)F)cc1Cl
Second: CCC(=O)Nc1cccc(C2(c3cc(C(=O)CC)n(CC)c3)N=C(N)N(C)C2=O)c1 (stereo not given)
The melting point of the first is lower: 96.5 to 97.5 °C for the first, 120 to 141 °C for the second.

First: COc1cc2oc(=O)c(CCCl)c(C)c2cc1OC(C)C
Second: Nc1nc2[nH]c(CCCc3cc(C(=O)O)cs3)cc2c(=O)[nH]1
The melting point of the first is lower: 125 to 127 °C for the first, 181 to 182 °C for the second.

`CCOC(=O)c1cnc2c3c(ccc2c1Cl)C(=O)C(C(C)=O)C=N3` (stereo not given) and `O=C1c2ccccc2C(=O)c2sc(-c3ncc(-c4ccccc4)o3)nc21` cannot be ordered by melting point: 288 to 290 °C for the first, greater than 260 °C for the second.

Compared with `O=C(CCc1ccccc1)OCCOC(=O)NC1(C(=O)O)CC1`, `CCCCCCCCCCCCCCCCCCOC(=O)c1ccc(C(=O)OCCCCCCCCCCCCCCCCCC)cc1` is higher in melting point: 133 to 134 °C for the first, 140 °C for the second.
